Measurements reported in patent publication US20110028518A1, “DEXLANSOPRAZOLE PROCESS AND POLYMORPHS” (DR. REDDY'S LABORATORIES LTD., priority 2008, published 2011).

Assays:
[1] = target: (H+—K+)-ATPase (Homo sapiens, UniProt P20648); conditions: Biochemical Pharmacology (1991), 42(10), 1875-8; cited from earlier work
[2] = Storage stability studies (Example 28): water content and HPLC impurities; type: physicochemical
Text: A high performance liquid chromatography (HPLC) method for measuring the chemical purity of dexlansoprazole or a compound of formula (VII) of the present application, and for determination of their corresponding impurities, involves the use of a YMC-PAK ODS-A 100×4.6, 3 μm or equivalent column.
A high performance liquid chromatography (HPLC) method for measuring the impurity at RRT 1.98, and having a mass number of m/z 467, in the present application involves the use of a YMC-PRO C-18 100×4.6 mm, 3 microns or equivalent column.
Dexlansoprazole obtained from Example 23 was tested for its storage stability. The samples were stored in a tied clear polyethylene bag, placed in a black polyethylene bag filled with N2 along with a silica desiccant pouch, and the black bag was placed into a triple laminated bag along with silica gel pouch and then sealed and stored in HDPE drum packaging under the conditions noted in the following results tables. Chemical purity of the samples was measured by HPLC before and after storage.
The following impurities were monitored during stability testing:
2-mercaptobenzimidazole (designated “2-MB) having the following structure;
a “nitrosulphoxide” impurity (designated “NS”) having the following structure;
a “sulfide” impurity, having a chemical name 2-[[{4-(2,2,2-trifluoroethoxy)-3-methylpyridine-2-yl}methyl]thio]-1H-benzimidazole and the following structure;
a “sulfone” impurity, having a chemical name 2-[[{4-(2,2,2-trifluoroethoxy)-3-methylpyridine-2-yl}methyl]sulfonyl]-1H-benzimidazole and the following structure;
and an unidentified impurity at RRT (relative retention time) 1.98. Also given in the following tables are the concentration of the highest unidentified impurity as measured by HPLC, total impurities, and the water content. All results in the tables given below are expressed on a weight percent basis, and “ND” means not detected.

[3] = Particle size distribution; type: physicochemical
Text: “10th volume percentile” as used herein, unless otherwise defined refers to the size of particles, below which 10% of the measured sample volume lies; “50th volume percentile” as used herein, unless otherwise defined refers to the size of particles, below which 50% of the measured samples volume lies, and “90th volume percentile” as used herein, unless otherwise defined refers to the size of particles, below which 90% of the measured samples volume lies.
Particle size distributions of dexlansoprazole particles may be measured with a Jayant Test Siever (e.g., using mesh number 60, mesh opening 250 μm). Particle size distributions of dexlansoprazole particles may also be measured using light scattering equipment such as a Malvern Master Sizer 2000 (helium neon laser source, dexlansoprazole suspended in light liquid paraffin, size range: 0.02 μm to 2000 μm). Other techniques are also useful.

[4] = Bulk density (USP Test 616, method 2); type: physicochemical
Text: In an embodiment, the present application provides dexlansoprazole having bulk densities less than about 1 g/ml. Bulk density has been determined using Test 616 “Bulk Density and Tapped Density,” in United States Pharmacopoeia 29, United States Pharmacopeial Convention, Inc., Rockville, Md., 2005, in method 2.

[5] = Specific surface area by the BET method; type: physicochemical
Experimental: The specific surface area of dexlansoprazole of the present application has been measured by a BET (Brunauer, Emmett and Teller) specific surface method using a Micromeritics Gemini surface area analyzer, model 2365. Samples for analysis were degassed at 40° C. under reduced pressure and the determination of the adsorption of nitrogen gas at 77° K was measured for relative pressure in the range of 0.05-0.3.

[6] = At 25 ± 2° C. and 60 ± 5% Relative Humidity, 1 month
[7] = At 25 ± 2° C. and 60 ± 5% Relative Humidity, 2 months
[8] = At 25 ± 2° C. and 60 ± 5% Relative Humidity, 3 months
[9] = At 25 ± 2° C. and 60 ± 5% Relative Humidity, 15 days
[10] = At 25 ± 2° C. and 60 ± 5% Relative Humidity, 45 days
[11] = At 25 ± 2° C. and 60 ± 5% Relative Humidity, Initial
[12] = storage at 2-8° C. and at 25 ± 2° C./60 ± 5% RH, up to 3 months

Sequence of (H+—K+)-ATPase (P20648 whole entry): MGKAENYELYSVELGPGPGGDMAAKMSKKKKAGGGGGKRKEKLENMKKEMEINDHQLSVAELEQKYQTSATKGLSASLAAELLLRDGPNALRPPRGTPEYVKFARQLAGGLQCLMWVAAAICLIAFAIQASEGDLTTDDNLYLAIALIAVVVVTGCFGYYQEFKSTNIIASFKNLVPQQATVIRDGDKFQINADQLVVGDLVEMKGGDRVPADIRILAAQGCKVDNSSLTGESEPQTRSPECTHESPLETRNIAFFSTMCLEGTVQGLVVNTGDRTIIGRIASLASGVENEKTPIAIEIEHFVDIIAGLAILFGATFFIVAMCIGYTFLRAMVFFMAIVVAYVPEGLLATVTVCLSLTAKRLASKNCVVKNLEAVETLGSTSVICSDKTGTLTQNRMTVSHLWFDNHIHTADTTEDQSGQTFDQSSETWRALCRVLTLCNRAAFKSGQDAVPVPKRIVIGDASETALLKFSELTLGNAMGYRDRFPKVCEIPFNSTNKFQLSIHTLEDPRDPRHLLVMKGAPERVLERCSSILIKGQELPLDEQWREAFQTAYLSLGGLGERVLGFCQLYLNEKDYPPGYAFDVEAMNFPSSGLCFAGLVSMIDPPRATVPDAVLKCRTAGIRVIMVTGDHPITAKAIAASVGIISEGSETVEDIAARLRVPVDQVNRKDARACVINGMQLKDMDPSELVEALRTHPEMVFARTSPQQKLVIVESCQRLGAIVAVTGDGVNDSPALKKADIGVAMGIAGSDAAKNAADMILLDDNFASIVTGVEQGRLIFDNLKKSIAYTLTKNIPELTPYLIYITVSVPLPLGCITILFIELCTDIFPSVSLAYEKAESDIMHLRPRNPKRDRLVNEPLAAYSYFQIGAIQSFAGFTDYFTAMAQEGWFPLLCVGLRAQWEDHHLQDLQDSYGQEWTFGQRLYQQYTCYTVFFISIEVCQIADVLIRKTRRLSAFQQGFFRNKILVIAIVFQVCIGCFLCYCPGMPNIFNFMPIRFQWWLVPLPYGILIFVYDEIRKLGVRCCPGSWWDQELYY
Sequence of (H+—K+)-ATPase (P51164 whole entry partner): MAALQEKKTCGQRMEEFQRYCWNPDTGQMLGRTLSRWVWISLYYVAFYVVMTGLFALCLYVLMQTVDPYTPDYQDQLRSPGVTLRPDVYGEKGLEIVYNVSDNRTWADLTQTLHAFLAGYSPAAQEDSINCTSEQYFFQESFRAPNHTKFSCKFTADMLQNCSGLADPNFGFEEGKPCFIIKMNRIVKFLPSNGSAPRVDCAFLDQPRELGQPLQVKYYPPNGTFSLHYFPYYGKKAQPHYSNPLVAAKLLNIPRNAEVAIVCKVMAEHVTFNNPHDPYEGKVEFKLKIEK

SMILES: Cc1c(OCC(F)(F)F)ccnc1C[S@@+]([O-])c1nc2ccccc2[nH]1 [Dexlansoprazole, (R)-2-[[[3-methyl-4-(2,2,2-trifluoroethoxy)-2-pyridinyl]methyl]sulfinyl]-1H-benzimidazole]
- antisecretory activity due to the inhibition of (H+—K+)-ATPase [1]: antisecretory activity

SMILES: Cc1c(OCC(F)(F)F)ccnc1C[S@@+]([O-])c1nc2ccccc2[nH]1 [Example 23, dexlansoprazole]
- 2-MB ([2]; At 2-8° C., 1 month): 0.04 weight percent
- Highest Impurity ([2]; At 2-8° C., 1 month): 0.07 weight percent
- RRT 1.98 ([2]; At 2-8° C., 1 month): 0.06 weight percent
- Sulfide ([2]; At 2-8° C., 1 month): 0.45 weight percent
- Sulfone ([2]; At 2-8° C., 1 month): 0.57 weight percent
- Total impurities ([2]; At 2-8° C., 1 month): 1.54 weight percent
- Water ([2]; At 2-8° C., 1 month): 3.54 weight percent
- 2-MB ([2]; At 2-8° C., 2 months): 0.03 weight percent
- Highest Impurity ([2]; At 2-8° C., 2 months): 0.07 weight percent
- RRT 1.98 ([2]; At 2-8° C., 2 months): 0.06 weight percent
- Sulfide ([2]; At 2-8° C., 2 months): 0.50 weight percent
- Sulfone ([2]; At 2-8° C., 2 months): 0.61 weight percent
- Total impurities ([2]; At 2-8° C., 2 months): 1.76 weight percent
- Water ([2]; At 2-8° C., 2 months): 2.61 weight percent
- 2-MB ([2]; At 2-8° C., 3 months): 0.02 weight percent
- Highest Impurity ([2]; At 2-8° C., 3 months): 0.07 weight percent
- RRT 1.98 ([2]; At 2-8° C., 3 months): 0.06 weight percent
- Sulfide ([2]; At 2-8° C., 3 months): 0.48 weight percent
- Sulfone ([2]; At 2-8° C., 3 months): 0.59 weight percent
- Total impurities ([2]; At 2-8° C., 3 months): 1.63 weight percent
- Water ([2]; At 2-8° C., 3 months): 2.24 weight percent
- 2-MB ([2]; At 2-8° C., Initial): 0.02 weight percent
- Highest Impurity ([2]; At 2-8° C., Initial): 0.07 weight percent
- RRT 1.98 ([2]; At 2-8° C., Initial): 0.03 weight percent
- Sulfide ([2]; At 2-8° C., Initial): 0.47 weight percent
- Sulfone ([2]; At 2-8° C., Initial): 0.59 weight percent
- Total impurities ([2]; At 2-8° C., Initial): 1.42 weight percent
- Water ([2]; At 2-8° C., Initial): 2.90 weight percent
- 2-MB [2, 6]: 0.05 weight percent
- Highest Impurity [2, 6]: 0.09 weight percent
- RRT 1.98 [2, 6]: 0.14 weight percent
- Sulfide [2, 6]: 0.47 weight percent
- Sulfone [2, 6]: 0.55 weight percent
- Total impurities [2, 6]: 1.80 weight percent
- Water [2, 6]: 2.89 weight percent
- 2-MB [2, 7]: 0.04 weight percent
- Highest Impurity [2, 7]: 0.07 weight percent
- RRT 1.98 [2, 7]: 0.15 weight percent
- Sulfide [2, 7]: 0.50 weight percent
- Sulfone [2, 7]: 0.61 weight percent
- Total impurities [2, 7]: 1.99 weight percent
- Water [2, 7]: 1.54 weight percent
- 2-MB [2, 8]: 0.04 weight percent
- Highest Impurity [2, 8]: 0.07 weight percent
- RRT 1.98 [2, 8]: 0.17 weight percent
- Sulfide [2, 8]: 0.50 weight percent
- Sulfone [2, 8]: 0.61 weight percent
- Total impurities [2, 8]: 1.89 weight percent
- Water [2, 8]: 1.50 weight percent
- 2-MB [2, 9]: 0.03 weight percent
- Highest Impurity [2, 9]: 0.08 weight percent
- RRT 1.98 [2, 9]: 0.09 weight percent
- Sulfide [2, 9]: 0.50 weight percent
- Sulfone [2, 9]: 0.61 weight percent
- Total impurities [2, 9]: 1.76 weight percent
- Water [2, 9]: 1.68 weight percent
- 2-MB [2, 10]: 0.04 weight percent
- Highest Impurity [2, 10]: 0.06 weight percent
- RRT 1.98 [2, 10]: 0.14 weight percent
- Sulfide [2, 10]: 0.52 weight percent
- Sulfone [2, 10]: 0.64 weight percent
- Total impurities [2, 10]: 1.93 weight percent
- Water [2, 10]: 1.29 weight percent
- 2-MB [2, 11]: 0.02 weight percent
- Highest Impurity [2, 11]: 0.07 weight percent
- RRT 1.98 [2, 11]: 0.03 weight percent
- Sulfide [2, 11]: 0.47 weight percent
- Sulfone [2, 11]: 0.59 weight percent
- Total impurities [2, 11]: 1.42 weight percent
- Water [2, 11]: 2.90 weight percent
- Appearance during stability testing [2, 12]: maintained their initial cream color powder form
- Physical form during stability testing [2, 12]: remained in an amorphous form

SMILES: Cc1c(OCC(F)(F)F)ccnc1C[S@@+]([O-])c1nc2ccccc2[nH]1 [Example 24, dexlansoprazole]
- Particle size distribution d(0.1) [3]: 0.896 μm
- Particle size distribution d(0.5) [3]: 5.308 μm
- Particle size distribution d(0.9) [3]: 12.938
- Bulk density ([4]; after tapping): 0.65 g/mL
- Bulk density ([4]; before tapping): 0.47 g/mL

SMILES: Cc1c(OCC(F)(F)F)ccnc1C[S@@+]([O-])c1nc2ccccc2[nH]1 [Example 25, dexlansoprazole]
- specific surface area by the BET method [5]: 1.0608 m^2/g
